{"source": "paper PMC5608804", "about": "“Stepwise Evolution Improves Identification of Diverse Peptides Binding to a Protein Target” (Scientific Reports, 2017)", "key": {"[1]": {"molecular_target": "T1, streptavidin (Streptomyces avidinii, UniProt P22629)", "T1 construct": "purchased GE Healthcare (Little Chalfont, UK)", "T1 sequence (P22629 25-183)": "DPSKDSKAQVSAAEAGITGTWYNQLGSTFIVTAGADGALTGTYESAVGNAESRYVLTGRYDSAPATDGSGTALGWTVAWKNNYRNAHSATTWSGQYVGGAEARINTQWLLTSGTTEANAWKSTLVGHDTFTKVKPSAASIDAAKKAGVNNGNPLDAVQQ", "assay": "SPR analysis of peptide binding to immobilized streptavidin (Biacore X100)", "settings": "SPR sensorgrams, immobilized streptavidin", "method": "SPR analysis of peptide binding to streptavidin was performed with streptavidin immobilized on a chip and peptides in solution (see Materials and Methods).\nSurface Plasmon Resonance (SPR) experiments were performed using a Biacore X100 instrument (GE Healthcare). 60 µl of 100 µg/ml streptavidin in 10 mM Na-acetate (pH 5.0) was immobilized to flow cell 2 (Fc2) of a sensor chip CM5 (GE Healthcare) using the Amine Coupling Kit (GE Healthcare) at 20 °C for 6 min. Peptide stock solutions were prepared at 5 or 10 mM in H2O and diluted in HBS-EP+ (GE Healthcare) buffer. Peptide binding was performed in a multiple kinetics mode using HBS-EP+ as a running buffer and 0.2 M NaCl, 10 mM NaOH, or 10 mM HCl-glycine (pH 1.7) as the regeneration buffer. Binding kinetics parameters were calculated using Biacore X100 software."}, "[2]": {"molecular_target": "T1, streptavidin", "assay": "Cy5-streptavidin binding on cyclic discovery array, paired cyclic/linear 5-mer L/D-peptides", "settings": "Cy5-SA, three independent replicates on the same array, cyclic vs linear features", "excerpt": "To identify cyclic peptide binders to streptavidin, Cy5-SA was bound to an array library of 388,962 5-mer L/D-peptides. The pentameric peptides were composed of a 4-mer peptide synthesized with a combination of uncharged L- and D-amino acids and a γ-Glu: this residue enabled synthesis of both head-to-tail cyclic and linear peptides, respectively, for each peptide through either allyl ester or t-butyl ester C-terminal protection (see Materials and Methods for amino acid composition and cyclization protocol). The paired cyclic and linear array features were spatially positioned side-by-side to control for potential variations in cyclization yield for each peptide. The fluorescence signal intensities across three independent replicates on the same array were compared and the ratio cyclic to linear peptide of signal intensities was compared.\nThe combined cyclic and linear peptide libraries were synthesized starting with either the allyl ester (OAll) or t-butyl ester, respectively, of N-(2-nitrophenyl)propoxycarbonyl (NPPOC)-protected glutamate (γ-Glu) linked to the array surface through the carboxylic acid side chain. […]\nCy5 fluorescence intensity of the arrays was measured with an MS200 scanner (Roche NimbleGen, Madison, WI) at resolution 2 µm, wavelength 635 nm, gain 25%, and laser intensity 100%. […]"}}, "note": "Square brackets hold non-standard residues; d marks the D form. Peptide text beside a SMILES is read from it.", "data": [{"smiles": "NC(=O)CC[C@@H]1NC(=O)[C@H](Cc2c[nH]c3ccccc23)NC(=O)[C@H]2CCCN2C(=O)[C@H](CCC(N)=O)NC(=O)[C@H](CC(N)=O)NC1=O", "note": "[NQpWQ (head-to-tail cyclic)] (cyclo(NQ[dP]WQ))", "values": [{"measurement": "type of SPR binding kinetics", "setting": "[1]", "value": "fast on/fast off"}, {"measurement": "fluorescence signal intensity on cyclic discovery array", "setting": "[2]", "value": "highest fluorescence signal intensity"}]}]}
